Experimental data taken from publication PMC7179439, “Synthesis and Structure-Activity Relationship Studies of Hydrazide-Hydrazones as Inhibitors of Laccase from Trametes versicolor” (Molecules, 2020).
“And” between values parts separate entries of the source, which are not always exact repeats. Equal values may be shown once. Read-outs that look alike come from different tables or passages of the source.

Key:
[1] = target: laccase from Trametes versicolor; assay: Laccase enzyme inhibition assay with syringaldazine as substrate; format: biochemical; set-up: key to The type of inhibition: a: competitive; b: uncompetitive; c: not determined; d: non-competitive; details: for Ki: 25 °C, pH 5.3, syringaldazine substrate, 6.25% v/v organic co-solvent; for The type of inhibition / type of inhibition: Lineweaver-Burk transformation
Experimental: The activity of laccase was determined using the procedure described by Leonowicz and Grzywnowicz. Basically, a standard reaction mixture contained the enzyme in McIlvaine buffer (1.5 mL, pH 5.3) in the presence or absence of tested compounds (0.1 mL) and substrate – syringaldazine (0.1 mL). Two water-miscible media were tested as suitable co-solvents for hydrazide-hydrazones which are poorly soluble in water. For that purpose, the stability of laccase (40 nM, McIlvaine buffer, pH 5.3) in methanol and DMSO (6.25% v/v) at 25 °C was investigated (see Supplementary Material). The samples containing the enzyme, with a volumetric buffer–co-solvent ratio of 15:1, were withdrawn in different time intervals for 1500 min. A reaction system contained the 1.6 mL of the collected sample and 0.1 mL of syringaldazine (5.9 µM). Laccase activity was determined spectrophotometrically (UV-VIS 1800, Shimadzu, Reinach, Switzerland) by monitoring the changes in absorbance at 525 nm resulted from oxidation of the substrate syringaldazine with an extinction coefficient ε0 = 65000 M^−1·cm^−1 [99]. Kinetic parameters, Km and k3 were determined for two protein concentrations (20 and 40 nM) and with the nine concentrations of syringaldazine (0.59 to 20 µM), using the Michaelis-Menten model, Equation (1):V = Vmax · CS/(Km + CS), k3 = Vmax/CE(1) where Km [µM], k3 [min^–1] – kinetic constants, Vmax – maximal velocity [µM·min^–1], CS – substrate concentration [µM], CE – enzyme concentration [µM].
The parameters of the function were estimated using the nonlinear least square method in Matlab (The Mathworks, R2019a Version 9.6, academic licence). The method was used simultaneously for datasets obtain for different enzyme concertation. The common minimum of error function was found for all considered datasets resulting in one common estimate of each model parameter. The goodness of fit was assessed using the coefficient of determination (R^2); the sum of squared errors (SSE) and root mean squared error (RMSE). The 25 hydrazide-hydrazones, 4-hydroxybenzoic acid (control, 4-HBA), 4-hydroxybenzohydrazide (4a – 4-HBAH), and sodium azide (control) were tested against laccase in the standard reaction mixture. Prior to the substrate addition, the laccase and tested compound were pre-incubated for 10 min at 25 °C. At least three inhibitor concentrations were used in each experiment. All measurements were performed in triplicate. To determine the type of inhibition Lineweaver–Burk transformation was used applying the following equations for competitive (2), uncompetitive (3) and non-competitive model (4). The parameters of these equations were estimated using the linear least square method. 1/V = Km/Vmax · (1 + Ci/Ki) · 1/CS + 1/Vmax(2) 1/V = Km/Vmax · 1/CS + 1/Vmax · (1 + Ci/Ki)(3) 1/V = Km/Vmax · (1 + Ci/Ki) · 1/CS + 1/Vmax · (1 + Ci/Ki)(4) where Km [µM]—Michaelis-Menten constant, Vmax—maximal velocity [µM·min^–1], Ki—inhibition constant [µM], CS—substrate concentration [µM], Ci—inhibitor concentration [µM].

[2] = target: laccase from Pleurotus ostreatus; details: ABTS as substrate ref 86; cited from earlier work
[3] = system: laccase from Pleurotus eryngii; details: cited from earlier work; for Ki: ABTS as substrate, mixed type of inhibition ref 85

| Structure (SMILES) | Ki [1] [µM] | melting point | The type of inhibition [1] | type of inhibition [1] | other results |
| --- | --- | --- | --- | --- | --- |
| O=C(N/N=C/c1ccccc1S(=O)(=O)[O-])c1ccc(O)cc1.[Na+] [1d, Sodium 2-{(E)-[2-(4-hydroxybenzoyl)hydrazinylidene]methyl}benzenesulfonate] | ≥ 2400 | 251 °C (dec.) | – | – | – |
| CC(C)(C)c1cccc(/C=N/NC(=O)c2ccc(O)cc2)c1O [2b, 4-Hydroxy-N’-[(E)-(3-tert-butyl-2-hydroxyphenyl)methylidene]benzohydrazide] | 24 ± 5.9 | 240 to 242 °C | a | competitive | – |
| [N-]=[N+]=[N-].[Na+] [NaN3, sodium azide] | 2.72 ± 0.3 | – | d | non-competitive | Ki [2]: 16.5 µM; type of inhibition [2]: non-competitive; type of inhibition ([3]; ABTS as substrate ref 85): mixed type of inhibition; Ki ([3]; read-out: Kic): 17.6 µM; Ki ([3]; read-out: Kiu): 10.6 µM |
| O=C(N/N=C/c1ccccc1)c1ccc(O)cc1 [1a, 4-Hydroxy-N’-[(E)-benzylidene]benzohydrazide] | 1470 ± 58 | – | a | – | – |
| Cc1cc(/C=N/NC(=O)c2ccc(O)cc2)c(O)c(C(C)(C)C)c1 [3d, 4-Hydroxy-N’-[(E)-3-tert-butyl-2-hydroxy-5-methylbenzylidene]benzohydrazide] | 26.4 ± 3.4 | 261 to 263 °C and 261 to 262 °C | a | competitive | – |
| O=C(O)c1ccc(O)cc1 [4-HBA, 4-hydroxybenzoic acid, reference compound] | ≥ 2400 | – | – | – | inhibitory potency towards laccase [1]: no inhibitory potency |
| Cc1ccc(C(C)C)c(O)c1/C=N/NC(=O)c1ccc(O)cc1 [3e, 4-Hydroxy-N’-[(E)-(2-hydroxy-3-isopropyl-6-methylphenyl)methylidene]benzohydrazide] | ≥ 1000 | 258.5 to 260.5 °C | – | – | – |
| COc1cccc(/C=N/NC(=O)c2ccc(O)cc2)c1 [1i, 4-Hydroxy-N’-[(E)-(3-methoxyphenyl)methylidene]benzohydrazide] | 416 ± 1.5 | – | a | competitive | – |
| Cc1cc(/C=N/NC(=O)c2ccc(O)cc2)c(O)c(CO)c1 [3a, 4-Hydroxy-N’-[(E)-2-hydroxy-3-hydroxymethyl-5-methyl-benzylidene]benzohydrazide] | ≥ 1000 | 229 to 230 °C | – | – | – |
| COc1cccc(O)c1/C=N/NC(=O)c1ccc(O)cc1 [2e, 4-Hydroxy-N’-[(E)-(6-methoxy-2-hydroxyphenyl)methylidene]benzohydrazide] | ≥ 1000 | 256.5 to 257.5 °C | – | – | – |
| COc1cc(/C=N/NC(=O)c2ccc(O)cc2)ccc1O [2g, 4-Hydroxy-N’-[(E)-(4-hydroxy-3-methoxyphenyl)methylidene]benzohydrazide] | 251 ± 38 | 218.5 to 220 °C | a | competitive | – |
| O.O=C(N/N=C/c1cccc(O)c1)c1ccc(O)cc1 [1f, 4-Hydroxy-N’-[(E)-(3-hydroxyphenyl)methylidene]benzohydrazide monohydrate] | 2400 ± 334 | – | a | – | – |
| O=C(N/N=C/CCc1ccccc1)c1ccc(O)cc1 [1b, 4-Hydroxy-N’-[(E)-3-phenylpropylidene]benzohydrazide] | 1920 ± 163 | 243.5 to 244 °C | b | – | – |
| COc1cccc(OC)c1/C=N/NC(=O)c1ccc(O)cc1 [2f, 4-Hydroxy-N’-[(E)-(2,6-dimethoxyphenyl)methylidene]benzohydrazide] | ≥ 1000 | 214.5 to 216 °C | – | – | inhibitory potency towards laccase [1]: practically inactive |
| COc1ccccc1/C=N/NC(=O)c1ccc(O)cc1 [1h, 4-Hydroxy-N’-[(E)-(2-methoxyphenyl)methylidene]benzohydrazide] | 1060 ± 18 | – | a | – | – |
| CC(C)(C)c1cc(/C=N/NC(=O)c2ccc(O)cc2)c(O)c(C(C)(C)C)c1 [3c, 4-Hydroxy-N’-[(E)-(3,5-di-tert-butyl-2-hydroxyphenyl)methylidene]benzohydrazide] | 17.9 ± 1.3 | 274.5 to 275.5 °C | b | – | – |
| Cc1cc(/C=N/NC(=O)c2cccc(O)c2)c(O)c(C(C)(C)C)c1 [3g, 3-Hydroxy-N’-[(E)-(3-tert-butyl-2-hydroxy-5-methylphenyl)methylidene]benzohydrazide] | 32 ± 8 | 240 to 242.5 °C | d | non-competitive | – |
| O=C(N/N=C/c1cc(Br)ccc1O)c1ccc(O)cc1 [2d, 4-Hydroxy-N’-[(E)-(5-bromo-2-hydroxyphenyl)methylidene]benzohydrazide] | ≥ 1000 | 276 to 278 °C | – | – | – |
| COc1cccc(/C=N/NC(=O)c2ccc(O)cc2)c1 (hydrate or solvate) [1i, 4-Hydroxy-N’-[(E)-(3-methoxyphenyl)methylidene]benzohydrazide] | – | 210 to 212 °C | – | – | – |

Now from value to molecule, other results behind:

| Ki [1] [µM] | melting point | The type of inhibition [1] | type of inhibition [1] | Structure (SMILES) | other results |
| --- | --- | --- | --- | --- | --- |
| 251 ± 26 | – | a | competitive | Cc1ccc(/C=N/NC(=O)c2ccc(O)cc2)cc1 [1c, 4-Hydroxy-N’-[(E)-(4-methylphenyl)methylidene]benzohydrazide monomethanolate] | – |
| ≥ 1000 | 266 °C (dec.) | – | – | Cc1cc(CO)cc(/C=N/NC(=O)c2ccc(O)cc2)c1O [3b, 4-Hydroxy-N’-[(E)-(5-hydroxymethyl-3-methyl-2-hydroxyphenyl)methylidene]benzohydrazide] | – |
| ≥ 2400 | – | – | – | COc1ccc(C(=O)NN)cc1 [4b, reference compound] | inhibitory potency towards laccase [1]: no inhibitory potency |
| ≥ 1000 | 240 to 242.5 °C | – | – | COc1ccc(C(=O)N/N=C/c2cccc(-c3ccccc3)c2O)cc1 [2h, 4-Methoxy-N’-[(E)-2-hydroxy-3-phenyl-benzylidene]benzohydrazide] | – |
| 674 ± 10 | – | a | competitive | O=C(N/N=C/c1ccccc1O)c1ccc(O)cc1 [1e, 4-Hydroxy-N’-[(E)-(2-hydroxyphenyl)methylidene]benzohydrazide] | – |
| – | 215 to 218 °C | – | – | O=C(N/N=C/c1cccc(-c2ccccc2)c1O)c1ccc(O)cc1 (hydrate or solvate) [2a, 4-Hydroxy-N’-[(E)-(2-hydroxy-3-phenyl-phenyl)methylidene]benzohydrazide monomethanolate] | – |
| ≥ 1000 | 231.5 to 234.5 °C | – | – | COc1cc(O)c(/C=N/NC(=O)c2ccc(O)cc2)c(OC)c1 [3f, 4-Hydroxy-N’-[(E)-(2-hydroxy-4,6-dimethoxyphenyl)methylidene]benzohydrazide] | – |
| 939 ± 30 | 294 °C (dec.) | b | uncompetitive | O=C(N/N=C/c1ccc(O)cc1O)c1ccc(O)cc1 [2c, 4-Hydroxy-N’-[(E)-(2,4-dihydroxyphenyl)methylidene]benzohydrazide] | inhibitory potency towards laccase [1]: practically inactive |
| 25.3 ± 6.9 | – | a | competitive | O=C(N/N=C/c1cccc(-c2ccccc2)c1O)c1ccc(O)cc1 [2a, 4-Hydroxy-N’-[(E)-(2-hydroxy-3-phenyl-phenyl)methylidene]benzohydrazide monomethanolate] | – |
| 638 ± 35 | – | b | – | O=C(N/N=C/c1ccc(O)cc1)c1ccc(O)cc1 [1g, 4-Hydroxy-N’-[(E)-(4-hydroxyphenyl)methylidene]benzohydrazide] | – |
